Measured values from PMC11850249, “Typical and atypical metabolic characteristics of three iridaceae isoflavone components: in vitro and in silico studies” (Frontiers in Pharmacology, 2025).
Values joined by “and” are separate entries in the source; they are usually repeats but may differ in a detail not shown here. Equal entries are not always repeated. Where two headings read alike, the source gives them in different places.

Columns and labels:
CYP2C19 = target: T1, CYP2C19 (Homo sapiens, UniProt P33261); test: Enzyme kinetics with recombinant CYP2C19; type: in vitro ADME
T1 construct: purchased CYPEX (Dundee, United Kingdom)
T1 sequence (P33261 whole entry): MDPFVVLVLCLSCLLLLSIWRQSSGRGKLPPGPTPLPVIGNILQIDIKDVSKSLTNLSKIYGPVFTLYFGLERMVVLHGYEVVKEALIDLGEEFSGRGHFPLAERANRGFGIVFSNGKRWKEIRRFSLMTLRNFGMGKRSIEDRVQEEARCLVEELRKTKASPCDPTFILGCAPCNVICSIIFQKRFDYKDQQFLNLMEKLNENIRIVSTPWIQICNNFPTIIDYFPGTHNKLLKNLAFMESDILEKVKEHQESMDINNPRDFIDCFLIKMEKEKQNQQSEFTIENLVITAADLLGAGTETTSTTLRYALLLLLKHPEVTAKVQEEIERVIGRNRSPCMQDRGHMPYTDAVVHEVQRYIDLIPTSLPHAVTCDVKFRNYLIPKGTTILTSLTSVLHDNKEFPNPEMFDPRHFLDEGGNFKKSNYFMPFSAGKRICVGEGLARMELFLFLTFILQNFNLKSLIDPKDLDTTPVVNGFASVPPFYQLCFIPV
Description: (§1) A series of concentrations (1–300 μM) of tectorigenin, irigenin, or irisflorentin were added to HLMs or recombinant enzymes. Nonlinear regression was performed on the substrate concentration and generation rate of metabolites to investigate the enzymatic kinetic characteristics of these components in the metabolic system. All experiments were carried out in triplicate.
(§2) A Waters AQUITY UPLC system (Waters, Milford, MA, United States) equipped with a Dikma ODS C18 column (150 × 4.6 mm, 5 μm) was used for separation at 30°C. The binary mobile phase consisted of A (an aqueous solution containing 0.1% acetic acid and 2 mM ammonium acetate) and B (acetonitrile) at a flow rate of 1 mL/min. […] The concentrations of the metabolites were calculated using a standard curve of the substrates.
(§3) GraphPad Prism software 5.0 was used to perform non-linear fitting between the metabolite generation rate (V) and substrate concentration [S]. The appropriateness of the enzyme kinetic model was determined using R ^2 and the Eadie-Hofstee fit. […] Intrinsic clearance (Clint) was calculated according to Equation 3 (for the Michaelis–Menten model) and Equation 4 (for the sigmoidal kinetics model). All data are expressed as mean ± Standard Error (SE). […]

[1] = tested on: human liver microsomes (HLMs); test: Enzyme kinetics in HLMs; type: in vitro ADME; settings: for Km: n = 3, read-out: Km for metabolite formation
Description: as §1
(§4) A Waters AQUITY UPLC system (Waters, Milford, MA, United States) equipped with a Dikma ODS C18 column (150 × 4.6 mm, 5 μm) was used for separation at 30°C. The binary mobile phase consisted of A (an aqueous solution containing 0.1% acetic acid and 2 mM ammonium acetate) and B (acetonitrile) at a flow rate of 1 mL/min. The elution settings were as follows: 0 → 5 min: 10% B → 20% B; 5 min → 20 min: 20% B → 50% B; 20 min → 21 min: 50% B → 60% B; 21 min → 25 min: 60% B → 90% B; 25 min → 25.1 min 90%–10% B; 25.1 min → 30 min 10% B. Flow rate: 1 mL/min 260 nm was used as the detection wavelength. Calibration standard curves were generated using a reaction mixture containing tectorigenin, irigenin, or irisflorentin at a concentration range of 0.03–10 µM. The concentrations of the metabolites were calculated using a standard curve of the substrates.
(§5) GraphPad Prism software 5.0 was used to perform non-linear fitting between the metabolite generation rate (V) and substrate concentration [S]. The appropriateness of the enzyme kinetic model was determined using R ^2 and the Eadie-Hofstee fit. The maximum metabolic rate (Vmax) and Michaelis constant (Km) were obtained for kinetic processes that conformed to the Michaelis–Menten model (Equation 1). For kinetic processes that conform to the sigmoidal kinetics model (Equation 2), Vmax, Hill coefficient (n), and S50, concentrations at 50% Vmax were obtained. Intrinsic clearance (Clint) was calculated according to Equation 3 (for the Michaelis–Menten model) and Equation 4 (for the sigmoidal kinetics model). All data are expressed as mean ± Standard Error (SE). One - way analysis of variance was used to compare the differences between different groups. A p-value below 0.05 was regarded as statistically significant. V=VmaxS/Km+S (1) V=Vmax+C^n/S50n+C^n (2) Clint=Vmax/Km (3) Clint=Vmax/S50×n−1/nn−1^1/n (4)

CYP isoenzymes in HLMs = test: Inhibition by chemical CYP inhibitors in HLMs; type: in vitro ADME, human
Description: To investigate the role of specific CYP subtypes in metabolism, tectorigenin, irigenin, or irisflorentin (100 μM) was co-incubated with HLMs (0.5 mg protein/mL), NADPH (1 mM), and MgCl2 (10 mM) in the presence of known CYP inhibitors. The inhibitors used were α-Naph (20 μM) for CYP1A2 ([Zhang Y. J. et al., 2021]), Tryp (2 μM) for CYP2A6 ([Rodríguez-Morató et al., 2017]), Spz (10 μM) for CYP2C9 ([Berger et al., 2018]), Ticlo (2 μM) for CYP2B6 and 2C19 ([Yang et al., 2019]), Qd (8 μM) for CYP2D6 ([Martin et al., 2022]), DDC (100 μM) for CYP2E1 ([Zhang X. et al., 2021]), and KCZ (1 μM) for CYP3A4 ([Berger et al., 2018]). Finally, the samples obtained by centrifugation after adding ice-cold methanol to the incubated samples were analyzed using HPLC. Samples without inhibitors were used as controls to calculate the inhibition rates. Each inhibitor group and the control group were compared. All experiments were carried out in triplicate.

[2] = tested on: recombinant CYP enzymes (CYP1A2, CYP2A6, CYP2C8, CYP2C9, CYP2C19, CYP2D6, CYP2E1, CYP3A4); test: Reaction phenotyping with recombinant CYP enzymes; type: in vitro ADME, human
Description: To assess the role of CYP enzymes to isoflavone metabolism, tectorigenin, irigenin, or irisflorentin (100 μM) was co-incubated with 25 pmol of recombinant CYP enzymes (CYP1A2, CYP2A6, CYP2C8, CYP2C9, CYP2C19, CYP2D6, CYP2E1, and CYP3A4) and MgCl2 (10 mM) in Tris-HCl buffer. The samples were pre-incubated at 37°C for 5 min, and the reaction was initiated by the addition of NADPH. After 30 min of incubation, the supernatant obtained by centrifugation after adding methanol to the incubated sample was analyzed by HPLC. All experiments were carried out in triplicate.

CYP3A4 = target: T2, CYP3A4 (Homo sapiens, UniProt P08684); test: Enzyme kinetics with recombinant CYP3A4; type: in vitro ADME
T2 construct: purchased CYPEX (Dundee, United Kingdom)
T2 sequence (P08684 whole entry): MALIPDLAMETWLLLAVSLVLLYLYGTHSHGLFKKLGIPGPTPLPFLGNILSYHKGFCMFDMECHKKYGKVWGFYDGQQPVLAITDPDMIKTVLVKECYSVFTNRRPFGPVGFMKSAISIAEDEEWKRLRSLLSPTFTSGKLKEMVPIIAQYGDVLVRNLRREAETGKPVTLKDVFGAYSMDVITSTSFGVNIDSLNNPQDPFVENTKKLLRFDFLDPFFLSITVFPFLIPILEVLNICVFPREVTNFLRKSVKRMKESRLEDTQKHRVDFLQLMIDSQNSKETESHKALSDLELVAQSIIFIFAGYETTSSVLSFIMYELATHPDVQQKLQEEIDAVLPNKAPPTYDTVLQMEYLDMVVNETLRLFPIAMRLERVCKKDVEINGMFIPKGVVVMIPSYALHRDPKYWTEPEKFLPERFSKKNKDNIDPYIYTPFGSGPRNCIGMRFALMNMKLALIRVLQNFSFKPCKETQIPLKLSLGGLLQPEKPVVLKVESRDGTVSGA
Description: as §1, §2, §3

CYP2E1 = target: T3, CYP2E1 (Homo sapiens, UniProt P05181); test: Enzyme kinetics with recombinant CYP2E1; type: in vitro ADME
T3 construct: purchased CYPEX (Dundee, United Kingdom)
T3 sequence (P05181 whole entry): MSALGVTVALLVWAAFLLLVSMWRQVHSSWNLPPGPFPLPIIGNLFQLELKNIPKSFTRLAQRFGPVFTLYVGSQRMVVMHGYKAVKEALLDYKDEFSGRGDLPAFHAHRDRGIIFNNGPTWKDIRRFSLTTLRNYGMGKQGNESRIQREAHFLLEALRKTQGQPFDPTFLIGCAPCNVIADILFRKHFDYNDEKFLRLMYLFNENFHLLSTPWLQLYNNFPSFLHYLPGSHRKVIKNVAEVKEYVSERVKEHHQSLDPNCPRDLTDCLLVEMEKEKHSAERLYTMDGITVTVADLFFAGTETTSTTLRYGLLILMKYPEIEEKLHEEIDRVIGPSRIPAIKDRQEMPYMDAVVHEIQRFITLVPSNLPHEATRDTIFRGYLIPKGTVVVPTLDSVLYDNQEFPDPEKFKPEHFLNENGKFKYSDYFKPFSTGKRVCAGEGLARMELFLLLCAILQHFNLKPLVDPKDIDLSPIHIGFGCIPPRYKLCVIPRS
Description: as §1, §2, §3

Enzyme kinetics in HLMs = type: in vitro ADME, human; settings: human, human liver microsomes, calculated from Vmax and Km or S50, read-out: Clint for metabolite formation
Description: as §1, §4, §5

[3] = tested on: human liver microsomes (HLMs); test: Metabolic stability and metabolite identification in HLMs; type: in vitro ADME; settings: 30 min
Description: To analyze the metabolic stability, a phase I metabolic system was established. Tectorigenin, irigenin, or irisflorentin (100 μM) was pre-incubated at 37°C with Tris-HCl buffer solution (50 mM), MgCl2 (10 mM), and HLMs (0.5 mg protein/mL). After 5 min, NADPH (1 mM) was added to start the metabolic reactions. After incubation for 30 min, an equal volume of methanol was added to terminate the reaction. After centrifugation, the supernatant was used for metabolite analysis. By comparing the high-performance liquid chromatography (HPLC) chromatograms of the samples incubated for 0 and 30 min to determine the generation of metabolites, mass spectrometry information for the metabolites was obtained using an UPLC-linear ion Trap-Orbitrap Mass Spectrometry method.
A UPLC system coupled with an LTQ-Orbitrap mass spectrometer (Thermo Fisher Scientific, Waltham, MA, United States) was used. The mass spectrometer was equipped with an electrospray ionization source operating in negative ion mode for tectorigenin and irigenin, and in positive ion mode for irisflorentin. The following parameter settings were used: sheath gas flow rate, 45 arb; auxiliary gas flow rate, 15 arb; capillary temperature, 350°C; spray voltage, 3.8 kV; and heating component temperature, 300°C. Xcalibur software (Thermo Fisher Scientific) was employed to acquire and process the data.

rat liver microsomes = tested on: rat liver microsomes; design: method as in Zhang Y. J. et al., 2021; settings: ref Zhang Y. J. et al., 2021; cited from earlier work
CYP1A2 = target: T4, CYP1A2 (Homo sapiens, UniProt P05177); test: Enzyme kinetics with recombinant CYP1A2; type: in vitro ADME
T4 construct: purchased CYPEX (Dundee, United Kingdom)
T4 sequence (P05177 1-516): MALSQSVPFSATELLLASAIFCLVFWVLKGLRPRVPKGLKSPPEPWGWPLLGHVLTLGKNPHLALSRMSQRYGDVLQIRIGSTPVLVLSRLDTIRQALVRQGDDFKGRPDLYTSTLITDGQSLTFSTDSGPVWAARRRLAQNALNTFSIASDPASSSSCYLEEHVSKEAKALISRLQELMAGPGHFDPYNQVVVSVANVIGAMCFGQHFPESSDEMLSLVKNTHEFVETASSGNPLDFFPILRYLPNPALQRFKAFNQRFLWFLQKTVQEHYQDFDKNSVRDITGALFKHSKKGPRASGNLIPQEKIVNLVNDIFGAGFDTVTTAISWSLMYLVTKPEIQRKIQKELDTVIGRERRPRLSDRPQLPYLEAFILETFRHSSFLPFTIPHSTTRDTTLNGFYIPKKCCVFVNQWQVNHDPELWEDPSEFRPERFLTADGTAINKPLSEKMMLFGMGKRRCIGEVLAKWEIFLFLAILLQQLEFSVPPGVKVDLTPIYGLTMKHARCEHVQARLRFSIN
Description: as §1, §2, §3

[4] = Michaelis-Menten model, mean ± SE

COc1cc(-c2coc3cc(O)c(OC)c(O)c3c2=O)cc(O)c1OC [Irigenin]
Clint (CYP2C19): 0.5 μL/min/pmol CYP | enzyme kinetic model (Eadie-Hofstee plot) [1]: Michaelis–Menten equation | Vmax for metabolite formation ([1]; Michaelis-Menten model, mean ± SE, n = 3): 263 ± 13.6 pmol/min/mg | Km [1, 4]: 17.5 ± 3.2 µM | effect of Ticlo on metabolite formation (in words) (CYP isoenzymes in HLMs): significantly inhibited | recombinant CYP subtypes that catalyze metabolite formation ([2]; 100 μM substrate, 25 pmol recombinant CYP, 30 min, eight subtypes measured): CYP3A4, CYP2C9, and CYP2C19 | metabolism by CYP2C19 relative to CYP2C9 and CYP3A4 ([2]; recombinant enzymes, CYP2C19 vs CYP2C9 and CYP3A4): 10–29 times

COc1c(O)cc2occ(-c3ccc(O)cc3)c(=O)c2c1O [Tectorigenin]
Clint (CYP3A4): 0.2 μL/min/pmol CYP | Clint (CYP2E1): 0.2 μL/min/pmol CYP | microsomal CLint (Enzyme kinetics in HLMs): 2.6 µL/min/mg | enzyme kinetic model (Eadie-Hofstee plot) [1]: Michaelis–Menten equation | Km [1, 4]: 106 ± 7.3 µM | Vmax for metabolite formation ([1]; mean ± SE, n = 3): 275.9 ± 7.6 pmol/min/mg protein | major metabolite after incubation with HLMs ([3]; 100 μM substrate, HLMs 0.5 mg protein/mL, NADPH 1 mM): hydroxylation metabolite of tectorigenin | effect of Ticlo on metabolite formation (in words) (CYP isoenzymes in HLMs; inhibitor Ticlo (CYP2B6 and 2C19 inhibitor), HLMs): no effect or a weak inhibitory effect | effect of α-Naph on metabolite formation (in words) (CYP isoenzymes in HLMs; inhibitor α-Naph (CYP1A2 inhibitor), HLMs): slight inhibition | production of metabolites by CYP2E1 and CYP3A4 relative to the other subtypes ([2]; human, 30 min, 100 μM): 3–38 times | recombinant CYP subtypes that catalyze metabolite formation ([2]; human, 30 min, 100 μM): CYP1A2, CYP2C19, CYP2E1, and CYP3A4

COc1cc(-c2coc3cc4c(c(OC)c3c2=O)OCO4)cc(OC)c1OC [Irisflorentin]
Hill coefficient (rat liver microsomes): 1.48 | Hill coefficient (CYP1A2; recombinant CYP1A2, sigmoidal kinetics): 1.5 ± 0.1 and 1.5 | Clint (CYP1A2; recombinant CYP1A2, sigmoidal kinetics model): 1.5 μL/min/pmol CYP | enzyme kinetic model (Eadie-Hofstee plot) [1]: sigmoidal kinetics characteristic | Vmax for metabolite formation ([1]; mean ± SE, n = 3): 235.4 ± 3.2 pmol/min/mg protein | Hill coefficient (n) ([1]; sigmoidal kinetics model): 1.8 ± 0.1 | S50 ([1]; sigmoidal kinetics model, mean ± SE, n = 3): 32.9 ± 1.0 µM | major metabolite after incubation with HLMs ([3]; human, 100 μM): 6,7-dihydroxy-5,3′,4′,5′-tetramethoxy isoflavone | effect of Ticlo on metabolite formation (in words) (CYP isoenzymes in HLMs): no effect or a weak inhibitory effect | effect of α-Naph on metabolite formation (in words) (CYP isoenzymes in HLMs): strong inhibition | metabolism by CYP1A2 relative to CYP2C9, CYP2C19 and CYP3A4 ([2]; human, 30 min, 100 μM): 21–55 times | recombinant CYP subtypes that catalyze metabolite formation ([2]; human, 30 min, 100 μM): CYP1A2, CYP2C19, and CYP3A4
